Reference: patent US20060276372A1, “Carotenoids, carotenoid analogs, or carotenoid derivatives for the treatment of proliferative disorders” (priority 2005, published 2006)
Read-outs that look alike come from different tables or passages of the source.

Tests used:
[1] = tested on: human prostate cancer cells; details: cited from earlier work
Connexin43 (Cx43) = test: Relative Cx43 protein levels by Western blot in C3H10T1/2 cells (Example 3); format: cell-based; details: Mus musculus, C3H 10T1/2, 168 h, read-out: Fold induction of Cx43 expression
Text: Treatments/Compounds._TTNPB (Biomol, Plymouth Meeting, Pa.); stock 5×10^−6M in acetone, diluted 1:500 in culture media (final 10^−8 M in 0.2% acetone). Lycophyll (All-trans, 95% pure, Hawaii Biotech, Inc., Aiea, Hi.); stocks 10^−2 M and 10^−3 M in tetrahydroftiran (THF; Sigma, St. Louis, Mo.) diluted 1:1000 and stirred into culture media immediately before treatment (final 10^−5 M and 10^−6 M in 0.1% THF). Lycopene (92.7% pure, Chromadex, Inc., Santa Ana, Calif.); stocks 10^−2 M and 10^−3 M in tetrahydrofuran (Sigma, St. Louis, Mo.) diluted 1:1000 and stir into culture media immediately before treatment (final 10^−5 M and 10^−6 M in 0.1% THF). […]
SDS-PAGE Electrophoresis, Transfer and Immunodetection. […] Lysates were sonicated and protein concentrations quantified using the BCA protein determination assay (Pierce, Rockford, Ill.). […] Protein standards were utilized to confirm molecular weight of detected protein (SeeBlue, Invitrogen, Carlsbad, Calif.). […] Cx43 protein was detected according to the manufacturer's instructions using the WesternBreeze Immunodetection Kit (Invitrogen, Carlsbad, Calif.) and a rabbit primary antibody reactive against the cytoplasmic tail of Cx43 (1:2000, Sigma, St. Louis, Mo.).
Quantification of Relative Western Blot Cx43 Protein Levels. […]

10T1/2 cells [2] = test: Gap junctional communication, scrape-loading dye transfer assay; format: cell-based, Mouse; details: 7 days
Procedure: Gap junctional communication assay. Junctional permeability was assayed by the scrape-loading dye transfer assay essentially as described in El-Fouly et al., 1987, which is incorporated herein by reference. Briefly, confluent cultures of 10T1/2 cells grown in 60 mm dishes were treated with the indicated compounds for 7 days. The treated cells were washed with Ca^+2-free phosphate-buffered saline (PBS). 1.5 ml of Lucifer Yellow CH (Sigma, St. Louis, Mo.) 0.2% in PBS was then added, and linear cuts were made on the monolayer using a surgical scalpel. The cultures were incubated for 2 minutes at 37° C. then rinsed thoroughly with PBS. The cultures were then fixed with 2 ml of 5% formaldehyde in PBS. Images were digitally quantitated by intensity thresholding using the SigmaScan software program (Jandel Scientific, San Rafael, Calif.).

[3] = Determination of aqueous solubility/dispersibility; format: physicochemical; details: USP-purified water, 2 hours, supernatant by UV/Vis
Procedure: Determination of aqueous solubility/dispersibility. 30.13 mg of 3 was added to 1 mL of USP-purified water. The sample was rotated for 2 hours, then centrifuged for 5 minutes. After centrifuging, solid was visible in the bottom of the tube. A 125-μL aliquot of the solution was then diluted to 25 mL. The sample was analyzed by UV/Vis spectroscopy at 436 nm, and the absorbance was compared to a standard curve compiled from 4 standards of known concentration. The concentration of the original supernatant was calculated to be 2.85 mg/mL and the absorptivity was 36.94 AU*mL/cm*mg. Slight error may have been introduced by the small size of the original aliquot.
Next, 30.80 mg of 9 was added to 1 mL of USP-purified water. The sample was rotated for 2 hours, then centrifuged for 5 minutes. After centrifuging, solid was visible in the bottom of the tube. A 125-μL aliquot of the solution was then diluted to 25 mL. The sample was analyzed by UViis spectroscopy at 411 nm, and the absorbance was compared to a standard curve compiled from 4 standards of known concentration. […] Slight error may have been introduced by the small size of the original aliquot.
Determination of aqueous solubility/dipsersibility of pAST. 23.70 mg of tetrasodium diphosphate astaxanthin was added to 1 ml of USP purified water. The mixture was stirred for 2 hours, and centrifuged for 5 minutes. The solution was diluted in water and analyzed by UV/vis spectroscopy at 480 nm and absorbance was compared to a standard curve compiled from 4 standards of known concentration.

CX43 protein = CX43 protein expression in 10T1/2 cells by Western blotting (Example 1); format: cell-based, Mouse; details: 4 days
Procedure: Cell lines and culture conditions. Mouse embryonic fibroblast 10T1/2 cells were cultured in Eagle's basal medium with Earle's salts supplemented with 4% fetal calf serum (Atlanta Biologicals, Norcross, Ga.), 25 μg/ml gentamicin sulfate (Sigma, St. Louis, Mo.), and passaged by trypsin/EDTA (Gibco Invitrogen, Carlsbad, Calif.) and maintained at 37° C. in a 5% CO2 atmosphere. The cells were allowed to grow until a monolayer was formed. The confluent cells were treated 7 days after seeding, unless otherwise indicated. dAST was prepared in a formulation of 20% EtOH and sterile water (0.2% final EtOH ) to minimize supramolecular aggregation, and the final concentration of EtOH in culture medium was 0.2%. CTX was dissolved in THF and added to media. TTNPB was dissolved in acetone (Sigma, St. Louis, Mo.) and cultures received a final acetone concentration of 0.1%.
Analysis of CX43 protein expression. Expression of CX43 protein in 10T1/2 cells was assessed by Western blotting. 10T1/2 cell monolayers were treated with the indicated carotenoid derivatives or with retinoids (as a positive control for the modulation of CX43 expression) 7 days after seeding in 100 mm dishes (Fisher Scientific, Pittsburgh, Pa.). Fours days after the drug was added to the cells, the cells were harvested, total cellular protein was isolated and the total protein concentration thereof was determined using a commercially available Protein Assay Reagent kit (Pierce Chemical Co., Rockford, Ill.). 40 μg of total cellular protein was resolved on an SDS-PAGE gel, transferred to a nitrocellulose membrane, and analyzed by Western blotting using the NuPage Western blotting kit (Invitrogen, Carlsbad, Calif.). CX43 was detected using a rabbit polyclonal antibody (Zymed, San Francisco, Calif.) raised against a synthetic polypeptide corresponding to the C-terminal domain common to mouse, human and rat CX43. Equal protein loafing was verified by immunoblotting for GAPDH, the expression of which is unaffected by treatment with retinoids or carotenoids, using a rabbit polyclonal GAPDH antibody was also used (Zymed, San Francisco, Calif.). CX43 and GAPDH immunoreactive bands were visualized by chemiluminescence using an anti-rabbit HRP-conjugated secondary antibody (Pierce Chemical Co., Rockford, Ill.). Images were obtained by exposure to X-ray film as previously described and scanned for digital analysis on the Fluoro-S Imager (Bio-Rad, Richmond, Calif.).

CX43 = CX43 plaques by indirect immunofluorescence in 10T1/2 cells; format: cell-based, Mouse; details: 10^−6 M, 4 days
Procedure: Analysis of CX43 protein by indirect immunofluorescence. Expression and assembly of CX43 into plaques was assessed by immunofluorescence staining essentially as described in Rogers et al, 1990, which is incorporated herein by reference. Briefly, confluent cultures of 10T1/2 cells were grown on Permanox plastic 4-chamber slides (Nalge Nunc International, Naperville, Ill.) and treated for 4 days as described above. Cells were fixed with −20° C. methanol overnight, washed in buffer, blocked in 1% bovine serum albumin (Sigma, St. Louis, Mo.) in PBS, incubated with the rabbit anti-CX43 antibody, and visualized with Alexa568 conjugated anti-rabbit secondary antibody (Molecular Probes, Eugene, Oreg.). Images were acquired with a Zeiss Axioplan microscope and a Roper Scientific cooled CCD camera.

10T1/2 cells [4] = format: cell-based, Mouse; details: for % Inhibition of MCA-induced transformation: 4 week period; for Foci/dish (mean Type II + Type III foci, 24 dishes): 4 week period after MCA
Procedure: Inhibition of MCA-induced neoplastic transformation in 10T1/2 cells. Cells were initiated with methylcholanthrene (MCA) […] (Sigma, St. Louis, Mo.) in acetone for 24 hours. Potential inhibitors of neoplastic transformation were added 7 days after removal of carcinogen as indicated and were renewed weekly by adding fresh medium supplemented with the appropriate drug for four weeks after removal of the carcinogen. The cultures were fixed and stained as described above. A total of 24 dishes of cells were used per treatment group. Type II and III foci were identified and then quantitated as described in Bertram et al., 1990, which is incorporated herein by reference.
Statistical analysis. Transformation data was analyzed by one-tailed, two-sample t-tests that incorporated unequal variances. The scrape-loading data was analyzed by paired t-tests.

SMILES: CC(C)c1ccc2c(c1)c(SC(C)(C)C)c(CC(C)(C)C(=O)O)n2Cc1ccc(Cl)cc1 [MK886]
- apoptosis of prostate cancer cells ([1]; Ghosh et al.): massive apoptosis
- cells in culture killed ([1]; concentration of 10 mM): more than 90%

SMILES: CC(C)=CCC/C(C)=C/C=C/C(C)=C/C=C/C(C)=C/C=C/C=C(C)/C=C/C=C(C)/C=C/C=C(\C)CCC=C(C)C [lycopene, reference compound]
- fold induction at 1 µM (Connexin43 (Cx43)): 1.55
- fold induction at 10 µM (Connexin43 (Cx43)): 1.51

SMILES: CC1=C(/C=C/C(C)=C/C=C/C(C)=C/C=C/C=C(C)/C=C/C=C(C)/C=C/C2=C(C)C(=O)C(OP(=O)([O-])[O-])CC2(C)C)C(C)(C)CC(OP(=O)([O-])[O-])C1=O.[Na+].[Na+].[Na+].[Na+] (stereo not shown) [pAST, tetrasodium diphosphate astaxanthin]
- increase of GJIC (dye transfer) over untreated control cultures (10T1/2 cells [2]; 10^−9 M): approximately 4 fold
- relative amount of GJIC over concentration range (10T1/2 cells [2]; concentrations ranging from 10^−10 to 10^−6 M): remained constant over a 4-log concentration range
- aqueous solubility/dispersibility [3]: 25.21 mg/mL
- CX43 protein induction versus solvent-treated controls (CX43 protein; 10^−5 M): no change
- CX43 protein induction versus solvent-treated controls (CX43 protein; 10^−6 M): about 5 fold
- CX43 protein induction versus solvent-treated controls (CX43 protein; 10^−7 M): ~2 fold
- CX43 immunoreactive plaques at regions of cell/cell apposition (CX43): increased the prevalence of CX43 immunoreactive plaques
- cumulative toxicity, monolayer formation (10T1/2 cells [4]; 10^−5 M for 4 weeks): failed to form complete monolayers
- neoplastic transformation (10T1/2 cells [4]; 10^−5 M for 4 weeks): strongly inhibited
- % Inhibition of MCA-induced transformation (10T1/2 cells [4]; 10^−6 M): 100%
- Foci/dish (mean Type II + Type III foci, 24 dishes) (10T1/2 cells [4]; 10^−6 M): No foci
- Foci/dish (mean Type II + Type III foci, 24 dishes) (10T1/2 cells [4]; 10^−6 M, listed as drawing 75): 0 foci/dish
- % Inhibition of MCA-induced transformation (10T1/2 cells [4]; 10^−7 M): 44%
- Foci/dish (mean Type II + Type III foci, 24 dishes) (10T1/2 cells [4]; 10^−7 M): substantially lowered levels of neoplastic transformation
- Foci/dish (mean Type II + Type III foci, 24 dishes) (10T1/2 cells [4]; 10^−7 M, listed as drawing 75): 0.91 foci/dish
- % Inhibition of MCA-induced transformation (10T1/2 cells [4]; 10^−8 M): 36%
- Foci/dish (mean Type II + Type III foci, 24 dishes) (10T1/2 cells [4]; 10^−8 M): substantially lowered levels of neoplastic transformation
- Foci/dish (mean Type II + Type III foci, 24 dishes) (10T1/2 cells [4]; 10^−8 M, listed as drawing 75): 1.04 foci/dish
